Where “and” joins values, the source holds several entries; their conditions need not be identical. Equal entries are not always repeated. Where two headings read alike, the source gives them in different places.
System: adult e-cigarette users
Conditions: for Relative Risk, vaping cessation Week 9 to 12: Row 1 (X = 0) over Row 2 (X = 1); for Common Relative Risk, Logit / Common Relative Risk, Mantel-Haenszel: X = 0 over X = 1, controlling for S; for Relative Risk, Logit / Relative Risk, Mantel-Haenszel: X = 0 over X = 1, no stratifier
Protocol: This Example describes a Phase 2 ORCA-V1 trial evaluated 160 adult e-cigarette users at 5 clinical trial locations in the United States. […] ORCA-V1 participants were randomized to receive 3 mg cytisinicline three times daily or placebo for 12 weeks in combination with standard cessation behavioral support. The dose and administration of cytisinicline in the ORCA-V1 study is identical to that used in the Phase 3 registrational trials for smoking cessation.
ORCA-V1 evaluated the efficacy and safety of 3 mg cytisinicline dosed three times daily for 12 weeks compared to placebo in 160 adult users of e-cigarettes or nicotine vapes. All participants received behavioral support for nicotine cessation.
Subjects were stratified on whether they have smoked >100 cigarettes in their lifetime (yes vs no) (FIG. 57). […] Missing data may be assumed as reported vaping.
Key inclusion criteria consisted of daily electronic cigarette usage (age ≥18 years): willing to bring e-cigarette or nicotine device used to clinical site and document specific product type, flavor, and nicotine level. Individuals were required to test positive for cotinine using the Alere iScreen® Oral Fluid Screening Device (Positive testing at 30 ng/mL cotinine level). Individuals required to be willing to set quit date within 7-14 days of after randomization and to participate in vaping cessation behavioral support provided throughout the study.
Key exclusion criteria included those currently smoking, or having smoked within 4 weeks prior to study randomization, and those with Expired Carbon Monoxide (CO) levels ≥10 ppm, indicating recent combustible tobacco use (i.e., no dual users). Those with clinically abnormal laboratory values were also excluded, as well as those with positive urinary screen for illicit drugs (THC not included in screen). Those with uncontrolled hypertension (BP 160/100 mmHg), abnormal ECG, or recent acute myocardial infarction, stroke, or heart failure admission in past 3 months were excluded. Psychiatric exclusions included (1) schizophrenia or bipolar disorder, (2) current moderate to severe depression symptoms, (3) high risk of suicide ideation. Pregnant or breast-feeding women or unwilling to use acceptable methods of birth control during the study were also excluded.
The first measurement consisted of biochemically verified continuous vaping abstinence during the last 4 weeks of treatment after 12 weeks of cytisinicline treatment vs placebo. Vaping abstinence during weeks 9-12 was verified with no reported vaping with weekly saliva cotinine levels <10 ng/mL.
A second measurement consisted of biochemically verified continuous vaping abstinence at any time during treatment, with vaping abstinence at Week 3-6 or Week 6-9 for of cytisinicline treatment vs placebo. 7-day point prevalence rates were compared for vaping abstinence (Week 2 to 12) (FIG. 62). An additional measurement included reduction in daily vaping as measured by cotinine, where cytisinicline treatment vs placebo for a reduction in nicotine vaping using weekly quantitative cotinine levels from Week 2 to Week 12. Safety was assessed by adverse effects and serious adverse effects, considering number, severity, and attribution to study drug.

[1] = 3 mg cytisinicline TID 12 weeks
[2] = All Randomized Set, Cytisinicline 12 Weeks N = 107, saliva cotinine <10 ng/mL
[3] = X = 1, Table of X by Y, all randomized, 107 subjects in row
[4] = X = 1, stratum S = 0 (>100 cigarettes = No), 30 subjects in row
[5] = X = 1, stratum S = 1 (>100 cigarettes = Yes), 77 subjects in row
[6] = share of all N = 107 of the arm
[7] = vs placebo, no stratifier, N=160, vaping cessation Week 9 to 12

Structure (SMILES): O=c1cccc2n1C[C@@H]1CNC[C@H]2C1 [cytisine, (−)-Cytisine]
- Odds ratio versus placebo, vaping cessation weeks 9-12, primary analysis with prospective stratification factor [1]: 2.6 and 2.64
- Odds ratio versus placebo, vaping cessation weeks 9-12, site as a stratification factor [1]: 3.03
- Odds ratio versus placebo, vaping cessation weeks 9-12, without any stratification factor [1]: 2.62
- Vaping cessation rate during weeks 9-12 (3 mg cytisinicline TID 12 weeks, saliva cotinine <10 ng/mL): 31.8%
- Continuous Vaping Abstinence Week 9 to Week 16, n (%) (12 Weeks arm N = 107, All Randomized Set): 25 (23.4) n (%)
- Vaping Cessation from Week 3 to Week 6, percent of subjects [2]: 24.3%
- Vaping Cessation from Week 6 to Week 9, percent of subjects [2]: 30.8%
- Vaping Cessation From Week 9 to Week 12, percent of subjects (All Randomized Set, Cytisinicline 12 wks N = 107, saliva cotinine <10 ng/mL): 31.8%
- 7-Day Point Prevalence Abstinence, n (%) (Week 2, 12 Weeks arm N = 107, All Randomized Set): 15 (14.0) n (%)
- 7-Day Point Prevalence Abstinence, Difference in Proportions (Week 2, vs placebo (N = 53)): 0.06
- 7-Day Point Prevalence Abstinence, Odds Ratio (Week 2, vs placebo (N = 53)): 2.00
- 7-Day Point Prevalence Abstinence, n (%) (Week 3, 12 Weeks arm N = 107, All Randomized Set): 36 (33.6) n (%)
- 7-Day Point Prevalence Abstinence, Difference in Proportions (Week 3, vs placebo (N = 53)): 0.11
- 7-Day Point Prevalence Abstinence, Odds Ratio (Week 3, vs placebo (N = 53)): 1.73
- 7-Day Point Prevalence Abstinence, n (%) (Week 4, 12 Weeks arm N = 107, All Randomized Set): 53 (49.5) n (%)
- 7-Day Point Prevalence Abstinence, Difference in Proportions (Week 4, vs placebo (N = 53)): 0.25
- 7-Day Point Prevalence Abstinence, Odds Ratio (Week 4, vs placebo (N = 53)): 3.02
- 7-Day Point Prevalence Abstinence, n (%) (Week 5, 12 Weeks arm N = 107, All Randomized Set): 45 (42.1) n (%)
- 7-Day Point Prevalence Abstinence, Difference in Proportions (Week 5, vs placebo (N = 53)): 0.14
- 7-Day Point Prevalence Abstinence, Odds Ratio (Week 5, vs placebo (N = 53)): 1.84
- 7-Day Point Prevalence Abstinence, n (%) (Week 6, 12 Weeks arm N = 107, All Randomized Set): 44 (41.1) n (%)
- 7-Day Point Prevalence Abstinence, Difference in Proportions (Week 6, vs placebo (N = 53)): 0.17
- 7-Day Point Prevalence Abstinence, Odds Ratio (Week 6, vs placebo (N = 53)): 2.15
- 7-Day Point Prevalence Abstinence, n (%) (Week 7, 12 Weeks arm N = 107, All Randomized Set): 52 (48.6) n (%)
- 7-Day Point Prevalence Abstinence, Difference in Proportions (Week 7, vs placebo (N = 53)): 0.26
- 7-Day Point Prevalence Abstinence, Odds Ratio (Week 7, vs placebo (N = 53)): 3.23
- 7-Day Point Prevalence Abstinence, n (%) (Week 8, 12 Weeks arm N = 107, All Randomized Set): 46 (43.0) n (%)
- 7-Day Point Prevalence Abstinence, Difference in Proportions (Week 8, vs placebo (N = 53)): 0.18
- 7-Day Point Prevalence Abstinence, Odds Ratio (Week 8, vs placebo (N = 53)): 2.32
- 7-Day Point Prevalence Abstinence, n (%) (Week 9, 12 Weeks arm N = 107, All Randomized Set): 45 (42.1) n (%)
- 7-Day Point Prevalence Abstinence, Difference in Proportions (Week 9, vs placebo (N = 53)): 0.18
- 7-Day Point Prevalence Abstinence, Odds Ratio (Week 9, vs placebo (N = 53)): 2.23
- 7-Day Point Prevalence Abstinence, n (%) (Week 10, 12 Weeks arm N = 107, All Randomized Set): 44 (41.1) n (%)
- 7-Day Point Prevalence Abstinence, Difference in Proportions (Week 10, vs placebo (N = 53)): 0.13
- 7-Day Point Prevalence Abstinence, Odds Ratio (Week 10, vs placebo (N = 53)): 1.77
- 7-Day Point Prevalence Abstinence, n (%) (Week 11, 12 Weeks arm N = 107, All Randomized Set): 40 (37.4) n (%)
- 7-Day Point Prevalence Abstinence, Difference in Proportions (Week 11, vs placebo (N = 53)): 0.13
- 7-Day Point Prevalence Abstinence, Odds Ratio (Week 11, vs placebo (N = 53)): 1.84
- 7-Day Point Prevalence Abstinence, n (%) (Week 12, 12 Weeks arm N = 107, All Randomized Set): 41 (38.3) n (%)
- 7-Day Point Prevalence Abstinence, Difference in Proportions (Week 12, vs placebo (N = 53)): 0.16
- 7-Day Point Prevalence Abstinence, Odds Ratio (Week 12, vs placebo (N = 53)): 2.12
- Vaping cessation Week 9 to 12, Row Pct Y = 0 (failure) (X = 1, Table of X by Y, all randomized): 68.22 Pct
- Vaping cessation Week 9 to 12, Frequency Y = 0 (failure) [3]: 73
- Vaping cessation Week 9 to 12, Row Pct Y = 1 (success) [3]: 31.78 Pct
- Vaping cessation Week 9 to 12, Row Pct Y = 0 (failure) (X = 1, stratum S = 0 (>100 cigarettes = No)): 63.33 Pct
- Vaping cessation Week 9 to 12, Frequency Y = 0 (failure) [4]: 19
- Vaping cessation Week 9 to 12, Row Pct Y = 1 (success) [4]: 36.67 Pct
- Vaping cessation Week 9 to 12, Row Pct Y = 0 (failure) (X = 1, stratum S = 1 (>100 cigarettes = Yes)): 70.13 Pct
- Vaping cessation Week 9 to 12, Frequency Y = 0 (failure) [5]: 54
- Vaping cessation Week 9 to 12, Row Pct Y = 1 (success) [5]: 29.87 Pct
- Column 1 Risk Estimates, Risk, Row 2 (Y = 0 (failure of vaping cessation Week 9 to 12), X = 1, N=160): 0.6822
- Relative Risk, vaping cessation Week 9 to 12 (Y = 0 (failure), stratum S = 0, N=45): 1.2632
- Relative Risk, vaping cessation Week 9 to 12 (Y = 0 (failure), stratum S = 1, N=115): 1.2383
- Common Relative Risk, Logit (Y = 0 (failure), N=160): 1.2435
- Common Relative Risk, Mantel-Haenszel (Y = 0 (failure), N=160): 1.2448
- Relative Risk, Logit (Y = 0 (failure), N=160): 1.2445
- Relative Risk, Mantel-Haenszel (Y = 0 (failure), N=160): 1.2445
- Relative Risk, vaping cessation Week 9 to 12 (Y = 1 (success), stratum S = 0, N=45): 0.5455
- Relative Risk, vaping cessation Week 9 to 12 (Y = 1 (success), stratum S = 1, N=115): 0.4405
- Column 2 Risk Difference (Row 1-Row 2) (Y = 1 (success), X = 0 minus X = 1, N=160): −0.1668
- Common Relative Risk, Logit (Y = 1 (success), N=160): 0.4784
- Common Relative Risk, Mantel-Haenszel (Y = 1 (success), N=160): 0.4747
- Relative Risk, Logit (Y = 1 (success), N=160): 0.4750
- Relative Risk, Mantel-Haenszel (Y = 1 (success), N=160): 0.4750
- Column 2 Risk Estimates, Risk, Row 2 (Y = 1 (vaping cessation Week 9 to 12), X = 1, N=160): 0.3178
- Difference in Proportions, Vaping Cessation from Week 3 to Week 6 (placebo group as reference): 0.09
- Difference in Proportions, Vaping Cessation from Week 6 to Week 9 (placebo group as reference): 0.14
- Odds Ratio, Vaping Cessation from Week 3 to Week 6 (placebo group as reference): 1.81
- Odds Ratio, Vaping Cessation from Week 6 to Week 9 (placebo group as reference): 2.18
- Marginal Difference in Proportions, Vaping Cessation from Week 9 to Week 12 (placebo group as reference, All Randomized Set): 0.17
- Vaping Cessation From Week 9 to Week 12, value in parentheses, >100 Cigarettes smoke in Lifetime = No [6]: 10.3
- Vaping Cessation From Week 9 to Week 12, value in parentheses, >100 Cigarettes smoke in Lifetime = Yes [6]: 21.5
- Vaping Cessation From Week 9 to Week 12, number of subjects, >100 Cigarettes smoke in Lifetime = No (stratum S = 0 (N=45; 30 on cytisinicline), Frequency X = 1, Y = 1 in FREQ table): 11
- Vaping Cessation From Week 9 to Week 12, number of subjects, >100 Cigarettes smoke in Lifetime = Yes (stratum S = 1 (N=115; 77 on cytisinicline), Frequency X = 1, Y = 1 in FREQ table): 23
- Continuous Vaping Abstinence Week 9 to Week 16, Difference in Proportions (vs placebo (N = 53)): 0.10
- Continuous Vaping Abstinence Week 9 to Week 16, Odds Ratio (vs placebo (N = 53)): 2.00
- Common Odds Ratio (Mantel-Haenszel), vaping cessation Week 9 to 12 (vs placebo, controlling for S (>100 Cigarettes Smoked in Lifetime no, yes), N=160, listed as Cytisinicline): 2.6375 and 2.64
- Common Odds Ratio (Logit), vaping cessation Week 9 to 12 (vs placebo, controlling for S, N=160): 2.6304
- Common Odds Ratio (Logit), summary statistics for X by Y [7]: 2.6199
- Common Odds Ratio (Mantel-Haenszel), summary statistics for X by Y [7]: 2.6199
- Odds Ratio, vaping cessation Week 9 to 12 (vs placebo, stratum S = 0 (>100 cigarettes = No), N=45): 2.3158
- Odds Ratio, vaping cessation Week 9 to 12 (vs placebo, stratum S = 1 (>100 cigarettes = Yes), N=115): 2.8111

Source: US20260158011A1 (Achieve Life Sciences, Inc., priority 2023, published 2026)
